Experimental data reported in patent US20170107179A1 (Tetraphase Pharmaceuticals, Inc., priority 2010, published 2017).
Converted amounts (≈) assume the structure as drawn. Like-named read-outs stand apart in the source and are kept apart here.

Legend:
H. influenzae HI551 = assay: Rat lung infection model; format: in vivo; conditions: H. influenzae intratracheal, 50 mg/kg orally at 5, 24, 48 hours
[1] = test system: Gram-negative and Gram-positive organisms (clinical isolates); assay: Broth microdilution MIC against clinical isolates (CLSI M7-A8), Table 9; format: cell-based
E. coli DH10B EC971 LacZ = assay: MIC, E. coli DH10B recombinantly expressing control gene
[2] = test system: Viridans group streptococci; assay: Broth microdilution MIC by tetracycline resistance phenotype (Table 10); format: cell-based; set-up: unit not given beside the values
[3] = test system: E. coli DH10B EC1082 TetA; assay: MIC, E. coli DH10B recombinantly expressing tetracycline-resistance gene; conditions: arabinose-induced, ampicillin in medium
E. coli DH10B EC970 TetK = assay: as above; conditions: arabinose-induced, ampicillin in medium
[4] = test system: evaluated pathogens by tetracycline phenotype; assay: Broth microdilution MIC by tetracycline phenotype (Table 14)
[5] = test system: E. coli DH10B EC1083 TetB; assay: MIC, E. coli DH10B recombinantly expressing tetracycline-resistance gene; conditions: arabinose-induced, ampicillin in medium
S. maltophila = assay: Broth microdilution MIC by tetracycline resistance phenotype (Table 10); format: cell-based; set-up: unit not given beside the values
[6] = test system: E. coli DH10B EC1153 Tet(X); assay: MIC, E. coli DH10B recombinantly expressing tetracycline-resistance gene; conditions: arabinose-induced, ampicillin in medium
E. coli DH10B EC969 TetM = assay: as above; conditions: arabinose-induced, ampicillin in medium
[7] = test system: Legionella pneumophila, 70 isolates, serogroups 1-6; assay: microbe, parasite or virus in culture; format: cell-based
[8] = test system: S. pneumoniae strain SP514; assay: Immunocompetent CD-1 murine lung infection model; format: in vivo; conditions: immunocompetent CD-1 mice, SP514, orally dosed 30 mg/kg at 5, 24 and 36 hours post-infection (FIG. 2)
Procedure: Compound 102 was tested in an immunocompetent CD-1 murine model of lung infection challenged with S. pneumoniae strain SP514.

[9] = Streptococcus pneumoniae, S. pneumoniae, TET NS, N=46
[10] = Klebsiella aerogenes, Enterobacter aerogenes, n=30
[11] = Klebsiella pneumoniae, Klebsiella pneumonia, n=27
[12] = Staphylococcus aureus, Staphylococcus aureus (MRSA PVL+), n=30, read-out: MIC50
[13] = Staphylococcus aureus, Staphylococcus aureus (MRSA PVL+), n=30, read-out: MIC90
[14] = Staphylococcus aureus, Staphylococcus aureus MRSA (includes MRSA PVL+ group), n=105, read-out: MIC50
[15] = Staphylococcus aureus, Staphylococcus aureus MRSA (includes MRSA PVL+ group), n=105, read-out: MIC90
[16] = Stenotrophomonas maltophilia, n=29
[17] = Streptococcus intermedius, n=30
[18] = Enterococcus faecium, E. faecium, TET NS, N=40
[19] = Enterococcus faecium, E. faecium, TET S, N=60
[20] = Streptococcus agalactiae, S. agalactiae, TET NS, N=39
[21] = Streptococcus agalactiae, S. agalactiae, TET S, N=11
[22] = Streptococcus pneumoniae, S. pneumoniae, TET S, N=54
[23] = Streptococcus pyogenes, S. pyogenes, TET S, N=44

## CC[C@H]1OC(=O)[C@H](C)[C@@H](O[C@H]2C[C@@](C)(OC)[C@@H](O)[C@H](C)O2)[C@H](C)[C@@H](O[C@@H]2O[C@H](C)C[C@H](N(C)C)[C@H]2O)[C@](C)(O)C[C@@H](C)CN(C)[C@H](C)[C@@H](O)[C@]1(C)O [Azithromycin, azithromycin, reference compound]
H. influenzae HI551
  reduction in lung CFU, oral comparator: 6.24±0.03 log10

## CN(C)[C@@H]1C(O)=C(C(N)=O)C(=O)[C@@]2(O)C(O)=C3C(=O)c4c(O)cccc4[C@@](C)(O)[C@H]3C[C@@H]12 [Tetracycline, tetracycline]
[1]
  MIC50: 0.25 µg/mL (≈ 0.563 µM)
  MIC90: > 8 µg/mL
[1]; Acinetobacter lwoffii
  MIC50: 0.5 µg/mL (≈ 1.13 µM)
  MIC90: 4 µg/mL (≈ 9 µM)
[1]; Enterobacter cloacae
  MIC50: 4 µg/mL (≈ 9 µM)
  MIC90: > 8 µg/mL
[1]; Escherichia coli
  MIC50: > 8 µg/mL
  MIC90: > 8 µg/mL
[1]; Klebsiella aerogenes
  MIC50: 1 µg/mL (≈ 2.25 µM)
  MIC90: 2 µg/mL (≈ 4.5 µM)
[1]; Klebsiella pneumoniae
  MIC50: 8 µg/mL (≈ 18 µM)
  MIC90: > 8 µg/mL
[1]; Morganella morganii
  MIC50: 2 µg/mL (≈ 4.5 µM)
  MIC90: > 8 µg/mL
[1]; Proteus vulgaris
  MIC50: 8 µg/mL (≈ 18 µM)
  MIC90: > 8 µg/mL
[1]; Serratia marcescens
  MIC50: > 8 µg/mL
  MIC90: > 8 µg/mL
[1]; Staphylococcus aureus
  MIC50: 0.25 µg/mL (≈ 0.563 µM)
[1]; Stenotrophomonas maltophilia
  MIC50: 8 µg/mL (≈ 18 µM)
  MIC90: > 8 µg/mL
[1]; Streptococcus anginosus
  MIC50: 0.12 µg/mL (≈ 0.27 µM)
  MIC90: > 4 µg/mL
[1]; Streptococcus intermedius
  MIC50: 0.25 µg/mL (≈ 0.563 µM)
  MIC90: > 4 µg/mL
[1]; Streptococcus mitis
  MIC50: 0.5 µg/mL (≈ 1.13 µM)
  MIC90: > 4 µg/mL
E. coli DH10B EC971 LacZ
  MIC EC971 LacZ: 2
[2]; TET NS, n=32
  MIC50: >4
  MIC90: >4
[2]; TET S, n=65
  MIC50: 0.25
  MIC90: 0.5
[3]
  MIC EC1082 TetA: >128
E. coli DH10B EC970 TetK
  MIC EC970 TetK: 64
[4]; F. faecalis, TET S, N=30
  MIC90: 500 µg/mL (≈ 1130 µM)
[4]; [9]
  MIC50: 16000 µg/mL (≈ 36000 µM)
[5]
  MIC EC1083 TetB: >128
S. maltophila; TET NS, n=19
  MIC50: >8
  MIC90: >8
S. maltophila; TET S, n=10
  MIC50: 4
  MIC90: 4
[6]
  MIC EC1153 Tet(X): >32
E. coli DH10B EC969 TetM
  MIC EC969 TetM: 64
[7]
  MIC50: 4 µg/mL (≈ 9 µM)
  MIC90: 8 µg/mL (≈ 18 µM)

## CN(C)c1cc(NC(=O)CNC(C)(C)C)c(O)c2c1C[C@H]1C[C@H]3[C@H](N(C)C)C(O)=C(C(N)=O)C(=O)[C@@]3(O)C(O)=C1C2=O [Tigecycline, tigecycline]
[1]; Acinetobacter lwoffii, n=29
  MIC50: 0.12 µg/mL (≈ 0.205 µM)
  MIC90: 0.5 µg/mL (≈ 0.854 µM)
[1]; Enterobacter cloacae, n=29
  MIC50: 1 µg/mL (≈ 1.71 µM)
  MIC90: 4 µg/mL (≈ 6.83 µM)
[1]; Escherichia coli, n=40
  MIC50: 0.5 µg/mL (≈ 0.854 µM)
  MIC90: 2 µg/mL (≈ 3.41 µM)
[1]; Kiebsielia oxytoca, n=30
  MIC50: 0.5 µg/mL (≈ 0.854 µM)
  MIC90: 2 µg/mL (≈ 3.41 µM)
[1]; [10]
  MIC50: 0.5 µg/mL (≈ 0.854 µM)
  MIC90: 0.5 µg/mL (≈ 0.854 µM)
[1]; [11]
  MIC50: 2 µg/mL (≈ 3.41 µM)
  MIC90: 4 µg/mL (≈ 6.83 µM)
[1]; Morganella morganii, n=30
  MIC50: 2 µg/mL (≈ 3.41 µM)
  MIC90: 4 µg/mL (≈ 6.83 µM)
[1]; Proteus vulgaris, n=29
  MIC50: 2 µg/mL (≈ 3.41 µM)
  MIC90: 4 µg/mL (≈ 6.83 µM)
[1]; Salmonella species, n=30
  MIC50: 0.25 µg/mL (≈ 0.427 µM)
  MIC90: 0.5 µg/mL (≈ 0.854 µM)
[1]; Serratia marcescens, n=30
  MIC50: 1 µg/mL (≈ 1.71 µM)
  MIC90: 2 µg/mL (≈ 3.41 µM)
[1]; [12]
  MIC50: 0.12 µg/mL (≈ 0.205 µM)
[1]; [13]
  MIC90: 0.12 µg/mL (≈ 0.205 µM)
[1]; [14]
  MIC50: 0.13 µg/mL (≈ 0.222 µM)
[1]; [15]
  MIC90: 0.25 µg/mL (≈ 0.427 µM)
[1]; [16]
  MIC50: 0.5 µg/mL (≈ 0.854 µM)
  MIC90: 2 µg/mL (≈ 3.41 µM)
[1]; Streptococcus anginosus, n=20
  MIC50: 0.03 µg/mL (≈ 0.0512 µM)
  MIC90: 0.06 µg/mL (≈ 0.102 µM)
[1]; [17]
  MIC50: 0.03 µg/mL (≈ 0.0512 µM)
  MIC90: 0.12 µg/mL (≈ 0.205 µM)
[1]; Streptococcus mitis, n=29
  MIC50: 0.03 µg/mL (≈ 0.0512 µM)
  MIC90: 0.12 µg/mL (≈ 0.205 µM)
[1]; Streptococcus sanguis, n=18
  MIC50: 0.03 µg/mL (≈ 0.0512 µM)
  MIC90: 0.06 µg/mL (≈ 0.102 µM)
E. coli DH10B EC971 LacZ; E. coli DH10B, arabinose-induced, ampicillin in medium
  MIC EC971 LacZ: 0.0625
[2]; TET NS, n=32
  MIC50: 0.03
  MIC90: 0.12
[2]; TET S, n=65
  MIC50: 0.03
  MIC90: 0.06
[3]
  MIC EC1082 TetA: 1
E. coli DH10B EC970 TetK
  MIC EC970 TetK: 0.0625
[4]; [18]
  MIC50: 0.06 µg/mL (≈ 0.102 µM)
  MIC90: 0.12 µg/mL (≈ 0.205 µM)
[4]; [19]
  MIC50: 0.06 µg/mL (≈ 0.102 µM)
  MIC90: 0.06 µg/mL (≈ 0.102 µM)
[4]; F. faecalis, TET NS, N=71
  MIC50: 0.12 µg/mL (≈ 0.205 µM)
  MIC90: 0.12 µg/mL (≈ 0.205 µM)
[4]; F. faecalis, TET S, N=30
  MIC50: 0.06 µg/mL (≈ 0.102 µM)
  MIC90: 0.12 µg/mL (≈ 0.205 µM)
[4]; [20]
  MIC50: 0.12 µg/mL (≈ 0.205 µM)
  MIC90: 0.12 µg/mL (≈ 0.205 µM)
[4]; [21]
  MIC50: 0.12 µg/mL (≈ 0.205 µM)
  MIC90: 0.12 µg/mL (≈ 0.205 µM)
[4]; [9]
  MIC50: 0.06 µg/mL (≈ 0.102 µM)
  MIC90: 0.06 µg/mL (≈ 0.102 µM)
[4]; [22]
  MIC50: 0.06 µg/mL (≈ 0.102 µM)
  MIC90: 0.06 µg/mL (≈ 0.102 µM)
[4]; Streptococcus pyogenes, S. pyogenes, TET NS, N=6
  MIC50: 0.06 µg/mL (≈ 0.102 µM)
[4]; [23]
  MIC50: 0.06 µg/mL (≈ 0.102 µM)
  MIC90: 0.06 µg/mL (≈ 0.102 µM)
[5]
  MIC EC1083 TetB: 0.0625
[6]
  MIC EC1153 Tet(X): 2
E. coli DH10B EC969 TetM
  MIC EC969 TetM: 0.125

## CC(=O)NC[C@H]1CN(c2ccc(N3CCOCC3)c(F)c2)C(=O)O1 [linezolid, Linezolid]
[1]; [12]
  MIC50: 1 µg/mL (≈ 2.96 µM)
[1]; [13]
  MIC90: 2 µg/mL (≈ 5.93 µM)
[1]; [14]
  MIC50: 2 µg/mL (≈ 5.93 µM)
[1]; [15]
  MIC90: 4 µg/mL (≈ 11.9 µM)
[1]; Streptococcus anginosus, n=20
  MIC50: 0.5 µg/mL (≈ 1.48 µM)
  MIC90: 1 µg/mL (≈ 2.96 µM)
[1]; [17]
  MIC50: 1 µg/mL (≈ 2.96 µM)
  MIC90: 1 µg/mL (≈ 2.96 µM)
[1]; Streptococcus mitis, n=29
  MIC50: 1 µg/mL (≈ 2.96 µM)
  MIC90: 1 µg/mL (≈ 2.96 µM)
[1]; Streptococcus sanguis, n=18, read-out: MIC50
  MIC50: 0.5 µg/mL (≈ 1.48 µM)
[1]; Streptococcus sanguis, n=18, read-out: MIC90
  MIC90: 1 µg/mL (≈ 2.96 µM)
[8]
  log10 reduction in CFU versus the 48 hour untreated control: 3.56±0.63 log10
